One assay has as its target T1, FKBP12 (Homo sapiens, UniProt P62942).
T1 construct: made in house; host or cells: E. coli
In words: SPR assay, binding affinity to FKBP12. As to conditions: equilibrium dissociation constant. The source says:
(§1) N-terminal avi-his6-tagged FKBP fusion proteins were expressed in E. coli and purified with nickel chromatography using standard procedures. Biotinylated his-avi-FKBPs were immobilized on a streptavidin chip using a Biacore 8K (GE Healthcare). […] The single-cycle kinetics data were fit to a 1:1 binding model to measure the association rate ka (1/Ms), the dissociation rate kd (1/s) and the affinity KD (M). […] The single-cycle kinetics data was fit to a 1:1 binding model to measure the association rate ka (1/Ms), the dissociation rate kd (1/s) and the apparent affinity KD (M) for ternary complex formation. The equilibrium dissociation constants (KD) to FKBP12, FKBP51, and FKBP52 are shown below in Table 6.
In general terms: SPR reads the build-up and loss of mass on a sensor chip optically.

The next assay concerns the target T2, FKBP52 (Homo sapiens, UniProt Q02790).
T2 construct: made in house; host or cells: E. coli
T2 sequence (Q02790 1-459): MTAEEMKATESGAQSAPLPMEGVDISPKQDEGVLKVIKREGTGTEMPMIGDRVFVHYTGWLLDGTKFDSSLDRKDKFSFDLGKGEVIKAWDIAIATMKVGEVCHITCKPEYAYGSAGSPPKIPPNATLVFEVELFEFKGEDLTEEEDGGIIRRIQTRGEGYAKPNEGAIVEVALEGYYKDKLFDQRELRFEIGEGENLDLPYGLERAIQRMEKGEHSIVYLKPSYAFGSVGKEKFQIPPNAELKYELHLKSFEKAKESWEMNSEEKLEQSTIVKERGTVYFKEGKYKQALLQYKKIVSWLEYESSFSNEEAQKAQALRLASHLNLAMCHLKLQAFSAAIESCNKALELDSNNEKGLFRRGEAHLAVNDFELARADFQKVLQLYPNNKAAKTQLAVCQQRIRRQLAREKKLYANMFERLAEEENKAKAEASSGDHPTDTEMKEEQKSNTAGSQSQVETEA
As to the kind of experiment: SPR assay, binding affinity to FKBP52. As to conditions: equilibrium dissociation constant. On the procedure: N-terminal avi-his6-tagged FKBP fusion proteins were expressed in E. coli and purified with nickel chromatography using standard procedures. Biotinylated his-avi-FKBPs were immobilized on a streptavidin chip using a Biacore 8K (GE Healthcare). To determine the kinetics-affinity of the rapalogs for FKBPs, rapalogs were diluted in DMSO to 50× working concentration. Next, 3.1 uLs of each rapalog solution was added to 150 uLs of buffer (50 mM Tris pH 7.5/150 mM NaCl/0.01% Tween 20/1 mM DTT) in a 384 deep well plate (greiner bio-one/78127) and mixed using a Biomek FX. The rapalog solution gradients (6 concentrations/2 fold dilutions, 3.1-100 nM or 31-1000 nM or 310-10000 nM) were then injected at 45 uL/min for 120 seconds: contact time and dissociation time was 1800 seconds in running buffer (50 mM Tris pH 7.5/150 mM NaCl/0.01% Tween 20/1 mM DTT/2% DMSO). The single-cycle kinetics data were fit to a 1:1 binding model to measure the association rate ka (1/Ms), the dissociation rate kd (1/s) and the affinity KD (M). […] 3.1 uLs of the 500 μM rapalog solutions were added to 150 uLs of the mTOR samples in a 384 deep well plate (greiner bio-one/78127) and mixed using a Biomek FX. The mTOR solution gradients were then injected at 45 uL/min for 120 seconds: contact time and dissociation time was 1800 seconds in running buffer (50 mM Tris pH 7.5/150 mM NaCl/0.01% Tween 20/1 mM DTT/2% DMSO). The single-cycle kinetics data was fit to a 1:1 binding model to measure the association rate ka (1/Ms), the dissociation rate kd (1/s) and the apparent affinity KD (M) for ternary complex formation.
The equilibrium dissociation constants (KD) to FKBP12, FKBP51, and FKBP52 are shown below in Table 6.

Assay [1] has as its system mTORc1 signaling, pS6 (Ser240/244) in MEF TSCl−/− cells. In words: Cell-based assay for rapalog potency (pS6) in MEF TSCl−/− cells. As to conditions: Mus musculus, 2 hours treatment, average from multiple assays. On the procedure:
Rapalog potency was determined using MEF TSCl−/− cell based assay. MEF TSCl−/− cells are Mouse Embryonic Fibroblasts deficient in Tuberous sclerosis protein—TSCl, which negatively regulates mTORc1 signaling and thus display constitutive mTORc1 activation, resulting in phosphorylation (activation) of downstream molecules. This cell-based assay is used to measure inhibition (de-phosphorylation) of S6 and 4EBP1 by rapalogs or other mTOR inhibitors.
MEF TSCl−/− cells were plated on Poly-D-lysine coated 384 well Griener clear bottom plates and incubated overnight at 37° C., 5% CO2. On the following day, cells were washed 8 times with “Hard starve” solution (1 L DPBS+1 g D-(+) glucose+10 ml of 7.5% Sodium Bicarbonate+20 ml of 1M HEPES) and incubated for further 2 hours in the same solution. Cells were next treated with compounds with decreasing concentrations (8 points at 3.16 fold dilutions) and incubated for 2 hours at 37° C., 5% CO2. Cells were fixed with 4% paraformaldehyde for 30 min and washed 5 times with TBS-EDTA followed by immuno-staining with fluorescent tag labeled antibodies for pS6 (Ser240/244) (Cell Signaling #9468) and p4EBP1 (Thr 37/46) (Cell Signaling #5123). Nuclei were visualized with Hoechst (ThermoFisher Scientific #H3570) staining. Cells were imaged (InCell 600) using respective fluorescence channels and the potency of mTOR inhibitors was defined by pS6 IC50 (nM).
In vitro potency of mTOR inhibitors was defined by pS6 IC50 (nM) in MEF TSCl−/− cells.
IC50 values are calculated as the average from multiple assays.

Another assay deals with T3, FKBP51 (Homo sapiens, UniProt Q13451).
T3 construct: made in house; host or cells: E. coli
T3 sequence (Q13451 1-457): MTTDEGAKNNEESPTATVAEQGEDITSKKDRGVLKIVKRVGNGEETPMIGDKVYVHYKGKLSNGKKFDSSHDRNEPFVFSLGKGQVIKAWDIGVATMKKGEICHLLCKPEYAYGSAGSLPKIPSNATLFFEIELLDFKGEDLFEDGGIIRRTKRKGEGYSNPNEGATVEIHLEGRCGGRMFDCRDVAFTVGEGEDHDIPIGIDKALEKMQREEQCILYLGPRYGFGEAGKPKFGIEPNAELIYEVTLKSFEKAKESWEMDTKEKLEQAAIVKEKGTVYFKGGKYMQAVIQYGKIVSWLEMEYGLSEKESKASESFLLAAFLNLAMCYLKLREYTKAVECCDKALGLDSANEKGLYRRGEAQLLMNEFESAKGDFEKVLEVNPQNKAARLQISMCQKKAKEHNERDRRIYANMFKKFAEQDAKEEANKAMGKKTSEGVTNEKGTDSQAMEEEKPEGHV
As to the kind of experiment: SPR assay, binding affinity to FKBP51. As to conditions: equilibrium dissociation constant.
From the text: as §1

T1 sequence (P62942 whole entry): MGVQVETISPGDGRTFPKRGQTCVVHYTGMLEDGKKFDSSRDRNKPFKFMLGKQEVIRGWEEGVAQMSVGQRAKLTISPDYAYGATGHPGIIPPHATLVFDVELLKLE

Turning to `CO[C@@H]1C[C@H](C[C@@H](C)[C@@H]2CC[C@H](C)/C=C(\C)[C@@H](O)[C@@H](OC)C(=O)[C@H](C)C[C@H](C)/C=C/C=C/C=C(\C)[C@H](NS(=O)(=O)CCCCl)C[C@@H]3CC[C@@H](C)[C@@](O)(O3)C(=O)C(=O)N3CCCC[C@H]3C(=O)O2)CC[C@H]1O` [Compound 18], the Kd at FKBP12 was 0.00073 µM; at FKBP52, 0.436 µM; on FKBP51, 0.573 µM. The same compound returned an IC50 in assay [1] of 0.0066 µM.

As for `CO[C@@H]1C[C@H](C[C@@H](C)[C@@H]2CC[C@H](C)/C=C(\C)[C@@H](O)[C@@H](OC)C(=O)[C@H](C)C[C@H](C)/C=C/C=C/C=C(\C)[C@@H](NS(C)(=O)=O)C[C@@H]3CC[C@@H](C)[C@@](O)(O3)C(=O)C(=O)N3CCCC[C@H]3C(=O)O2)CC[C@H]1OP(C)(C)=O` [Compound 24], the Kd on FKBP12 came out at 0.00054 µM; on FKBP52, 0.09 µM; on FKBP51 it was 0.025 µM. This compound yielded an IC50 in assay [1] of 0.00052 µM.

Usually Kd stands for the equilibrium constant for the complex coming apart. Read a low Kd as higher affinity. Broadly, the IC50 is the concentration needed to halve the response being measured. A low value points to greater potency in that assay.

Source of the values: patent publication US12281125B2, “Rapamycin derivatives” (NOVARTIS AG, priority 2018, dated 2025).
